Data from patent US10071086B2, “1H-pyrazolo[3,4-b]pyridines and therapeutic uses thereof” (Samumed, LLC, priority 2012, dated 2018).

What follows are molecules tested on Wnt pathway (assay: Wnt activity reporter assay (SP5 promoter-luciferase in SW480 cells)). Details: Homo sapiens, SP5 promoter firefly luciferase reporter, read-out: Wnt inhibition.
Format: cell-based
Description: The above synthesized compounds were screened using the assay procedure for Wnt activity described below.
Reporter cell lines can be generated by stably transducing cells of cancer cell lines (e.g., colon cancer) with a lentiviral construct that include a wnt-responsive promoter driving expression of the firefly luciferase gene.
Lentiviral constructs can be made in which the SP5 promoter, a promoter having eight TCF/LEF binding sites derived from the SP5 promoter, is linked upstream of the firefly luciferase gene. The lentiviral constructs can also include a hygromycin resistance gene as a selectable marker. The SP5 promoter construct can be used to transduce SW480 cells, a colon cancer cell line having a mutated APC gene that generates a truncated APC protein, leading to de-regulated accumulation of β-catenin.
Cultured SW480 cells bearing a reporter construct can be distributed at approximately 10,000 cells per well into 96 well or 384 well plates. Compounds from a small molecule compound library can then be added to the wells in half-log dilutions using a ten micromolar top concentration. A series of control wells for each cell type receive only buffer and compound solvent. Twenty-four to forty hours after the addition of compound, reporter activity for luciferase can be assayed, for example, by addition of the BrightGlo luminescence reagent (Promega) and the Victor3 plate reader (Perkin Elmer). Readings can be normalized to DMSO only treated cells, and normalized activities can then be used in the IC50 calculations.

SMILES | IC50
c1cc(-c2cncc3[nH]c(-c4n[nH]c5ncc(-c6cncc(CN7CCCCC7)c6)cc45)nc23)cs1 [Compound 354, 5-(5-(Piperidin-1-ylmethyl)pyridin-3-yl)-3-(7-(thiophen-3-yl)-3H-imidazo[4,5-c]pyridin-2-yl)-1H-pyrazolo[3,4-b]pyridine] | 293 nM
CC(C)(C)C(=O)Nc1cncc(-c2cnc3[nH]nc(-c4nc5c(-c6ccoc6)cncc5[nH]4)c3c2)c1 [Compound 373, N-(5-(3-(7-(Furan-3-yl)-3H-imidazo[4,5-c]pyridin-2-yl)-1H-pyrazolo[3,4-b]pyridin-5-yl)pyridin-3-yl)pivalamide] | 70 nM
O=C(Nc1cncc(-c2cnc3[nH]nc(-c4nc5c(-c6ccoc6)cncc5[nH]4)c3c2)c1)c1ccccc1 [Compound 376, N-(5-(3-(7-(Furan-3-yl)-3H-imidazo[4,5-c]pyridin-2-yl)-1H-pyrazolo[3,4-b]pyridin-5-yl)pyridin-3-yl)benzamide] | 51 nM
CCCC(=O)Nc1cncc(-c2cnc3[nH]nc(-c4nc5c(-c6ccoc6)cncc5[nH]4)c3c2)c1 [Compound 382, N-(5-(3-(7-(Furan-3-yl)-3H-imidazo[4,5-c]pyridin-2-yl)-1H-pyrazolo[3,4-b]pyridin-5-yl)pyridin-3-yl)butyramide] | 3 nM
CCC(=O)Nc1cncc(-c2cnc3[nH]nc(-c4nc5c(-c6cccs6)cncc5[nH]4)c3c2)c1 [Compound 440, N-(5-(3-(7-(Thiophen-2-yl)-3H-imidazo[4,5-c]pyridin-2-yl)-1H-pyrazolo[3,4-b]pyridin-5-yl)pyridin-3-yl)propionamide] | 4 nM
c1cncc(-c2cnc3[nH]nc(-c4nc5c(-c6cccs6)cncc5[nH]4)c3c2)c1 [Compound 443, 5-(Pyridin-3-yl)-3-(7-(thiophen-2-yl)-3H-imidazo[4,5-c]pyridin-2-yl)-1H-pyrazolo[3,4-b]pyridine] | 1 nM
O=C(Nc1cncc(-c2cnc3[nH]nc(-c4nc5c(-c6cccs6)cncc5[nH]4)c3c2)c1)C1CC1 [Compound 458, N-(5-(3-(7-(Thiophen-2-yl)-3H-imidazo[4,5-c]pyridin-2-yl)-1H-pyrazolo[3,4-b]pyridin-5-yl)pyridin-3-yl)cyclopropanecarboxamide] | 22 nM
c1csc(-c2cncc3[nH]c(-c4n[nH]c5ncc(-c6cncc(CNCC7CCCC7)c6)cc45)nc23)c1 [Compound 463, 1-Cyclopentyl-N-((5-(3-(7-(thiophen-2-yl)-3H-imidazo[4,5-c]pyridin-2-yl)-1H-pyrazolo[3,4-b]pyridin-5-yl)pyridin-3-yl)methyl)methanamine] | 98 nM
CCNCc1cncc(-c2cnc3[nH]nc(-c4nc5c(-c6cccc(F)c6)cccc5[nH]4)c3c2)c1 [Compound 547, N-((5-(3-(4-(3-Fluorophenyl)-1H-benzo[d]imidazol-2-yl)-1H-pyrazolo[3,4-b]pyridin-5-yl)pyridin-3-yl)methyl)ethanamine] | 97 nM
CC(C)Nc1cncc(-c2cnc3[nH]nc(-c4nc5c(-c6cccc(F)c6)cccc5[nH]4)c3c2)c1 [Compound 551, 5-(3-(4-(3-Fluorophenyl)-1H-benzo[d]imidazol-2-yl)-1H-pyrazolo[3,4-b]pyridin-5-yl)-N-isopropylpyridin-3-amine] | 33 nM
CN(C)Cc1cncc(-c2cnc3[nH]nc(-c4nc5c(-c6cccc(F)c6)cccc5[nH]4)c3c2)c1 [Compound 552, 1-(5-(3-(4-(3-Fluorophenyl)-1H-benzo[d]imidazol-2-yl)-1H-pyrazolo[3,4-b]pyridin-5-yl)pyridin-3-yl)-N,N-dimethylmethanamine] | 22 nM
Fc1cccc(-c2cccc3[nH]c(-c4n[nH]c5ncc(-c6cncc(CN7CCCCC7)c6)cc45)nc23)c1 [Compound 554, 3-(4-(3-Fluorophenyl)-1H-benzo[d]imidazol-2-yl)-5-(5-(piperidin-1-ylmethyl)pyridin-3-yl)-1H-pyrazolo[3,4-b]pyridine] | 200 nM
CCCCC(=O)Nc1cncc(-c2cnc3[nH]nc(-c4nc5c(-c6cccc(F)c6)cccc5[nH]4)c3c2)c1 [Compound 557, N-(5-(3-(4-(3-Fluorophenyl)-1H-benzo[d]imidazol-2-yl)-1H-pyrazolo[3,4-b]pyridin-5-yl)pyridin-3-yl)pentanamide] | 53 nM
O=C(Nc1cncc(-c2cnc3[nH]nc(-c4nc5c(-c6cccc(F)c6)cccc5[nH]4)c3c2)c1)C1CCCC1 [Compound 560, N-(5-(3-(4-(3-Fluorophenyl)-1H-benzo[d]imidazol-2-yl)-1H-pyrazolo[3,4-b]pyridin-5-yl)pyridin-3-yl)cyclopentanecarboxamide] | 90 nM
O=C(Nc1cncc(-c2cnc3[nH]nc(-c4nc5c(-c6cccc(F)c6)cccc5[nH]4)c3c2)c1)C1CCCCC1 [Compound 561, N-(5-(3-(4-(3-Fluorophenyl)-1H-benzo[d]imidazol-2-yl)-1H-pyrazolo[3,4-b]pyridin-5-yl)pyridin-3-yl)cyclohexanecarboxamide] | 143 nM
O=C(Nc1cncc(-c2cnc3[nH]nc(-c4nc5c(-c6ccc(F)cc6)cccc5[nH]4)c3c2)c1)c1ccccc1 [Compound 573, N-(5-(3-(4-(4-Fluorophenyl)-1H-benzo[d]imidazol-2-yl)-1H-pyrazolo[3,4-b]pyridin-5-yl)pyridin-3-yl)benzamide] | 82 nM
O=C(Nc1cncc(-c2cnc3[nH]nc(-c4nc5c(-c6ccc(F)cc6)cccc5[nH]4)c3c2)c1)C1CC1 [Compound 581, N-(5-(3-(4-(4-Fluorophenyl)-1H-benzo[d]imidazol-2-yl)-1H-pyrazolo[3,4-b]pyridin-5-yl)pyridin-3-yl)cyclopropanecarboxamide] | 48 nM
Fc1ccc(-c2cccc3[nH]c(-c4n[nH]c5ncc(-c6cncc(CNCC7CCCC7)c6)cc45)nc23)cc1 [Compound 586, 1-Cyclopentyl-N-((5-(3-(4-(4-fluorophenyl)-1H-benzo[d]imidazol-2-yl)-1H-pyrazolo[3,4-b]pyridin-5-yl)pyridin-3-yl)methyl)methanamine] | 420 nM
Fc1ccccc1-c1cccc2[nH]c(-c3n[nH]c4ncc(-c5cccnc5)cc34)nc12 [Compound 590, 3-(4-(2-Fluorophenyl)-1H-benzo[d]imidazol-2-yl)-5-(pyridin-3-yl)-1H-pyrazolo[3,4-b]pyridine] | 20 nM
CC(C)(C)C(=O)Nc1cncc(-c2cnc3[nH]nc(-c4nc5c(-c6ccccc6F)cccc5[nH]4)c3c2)c1 [Compound 594, N-(5-(3-(4-(2-Fluorophenyl)-1H-benzo[d]imidazol-2-yl)-1H-pyrazolo[3,4-b]pyridin-5-yl)pyridin-3-yl)pivalamide] | 120 nM
O=C(Cc1ccccc1)Nc1cncc(-c2cnc3[nH]nc(-c4nc5c(-c6ccccc6F)cccc5[nH]4)c3c2)c1 [Compound 595, N-(5-(3-(4-(2-Fluorophenyl)-1H-benzo[d]imidazol-2-yl)-1H-pyrazolo[3,4-b]pyridin-5-yl)pyridin-3-yl)-2-phenylacetamide] | 354 nM
Fc1ccccc1-c1cccc2[nH]c(-c3n[nH]c4ncc(-c5cncc(CN6CCCC6)c5)cc34)nc12 [Compound 599, 3-(4-(2-Fluorophenyl)-1H-benzo[d]imidazol-2-yl)-5-(5-(pyrrolidin-1-ylmethyl)pyridin-3-yl)-1H-pyrazolo[3,4-b]pyridine] | 220 nM
